Series [1] has as its target Tyrosine-protein kinase JAK1 (Homo sapiens, UniProt P23458). Put plainly: Inhibition of human JAK1 (866 to end residues) using GEEPLYWSFPAKKK as substrate after 40 mins in presence of [gamma33P]ATP by scintillation counting based radiometry assay.
Series [2] is described as follows: Metabolic stability in cryopreserved human liver microsomes assessed as half life. In kind it is ADME, Microsome. (Microsomes from liver hold many membrane-bound enzymes, among them those of drug oxidation.)
Series [3] addresses Non-receptor tyrosine-protein kinase TYK2 (Homo sapiens, UniProt P29597). Briefly: Inhibition of recombinant human TYK2 (875 to end residues) using GGMEDIYFEFMGG as substrate incubated for 40 mins in presence of [gamma33P]ATP by scintillation counting based radiometry assay.
Series [4] concerns the target T1, Tyrosine-protein kinase JAK3 (Homo sapiens, UniProt P52333).
T1 sequence (P52333 whole entry): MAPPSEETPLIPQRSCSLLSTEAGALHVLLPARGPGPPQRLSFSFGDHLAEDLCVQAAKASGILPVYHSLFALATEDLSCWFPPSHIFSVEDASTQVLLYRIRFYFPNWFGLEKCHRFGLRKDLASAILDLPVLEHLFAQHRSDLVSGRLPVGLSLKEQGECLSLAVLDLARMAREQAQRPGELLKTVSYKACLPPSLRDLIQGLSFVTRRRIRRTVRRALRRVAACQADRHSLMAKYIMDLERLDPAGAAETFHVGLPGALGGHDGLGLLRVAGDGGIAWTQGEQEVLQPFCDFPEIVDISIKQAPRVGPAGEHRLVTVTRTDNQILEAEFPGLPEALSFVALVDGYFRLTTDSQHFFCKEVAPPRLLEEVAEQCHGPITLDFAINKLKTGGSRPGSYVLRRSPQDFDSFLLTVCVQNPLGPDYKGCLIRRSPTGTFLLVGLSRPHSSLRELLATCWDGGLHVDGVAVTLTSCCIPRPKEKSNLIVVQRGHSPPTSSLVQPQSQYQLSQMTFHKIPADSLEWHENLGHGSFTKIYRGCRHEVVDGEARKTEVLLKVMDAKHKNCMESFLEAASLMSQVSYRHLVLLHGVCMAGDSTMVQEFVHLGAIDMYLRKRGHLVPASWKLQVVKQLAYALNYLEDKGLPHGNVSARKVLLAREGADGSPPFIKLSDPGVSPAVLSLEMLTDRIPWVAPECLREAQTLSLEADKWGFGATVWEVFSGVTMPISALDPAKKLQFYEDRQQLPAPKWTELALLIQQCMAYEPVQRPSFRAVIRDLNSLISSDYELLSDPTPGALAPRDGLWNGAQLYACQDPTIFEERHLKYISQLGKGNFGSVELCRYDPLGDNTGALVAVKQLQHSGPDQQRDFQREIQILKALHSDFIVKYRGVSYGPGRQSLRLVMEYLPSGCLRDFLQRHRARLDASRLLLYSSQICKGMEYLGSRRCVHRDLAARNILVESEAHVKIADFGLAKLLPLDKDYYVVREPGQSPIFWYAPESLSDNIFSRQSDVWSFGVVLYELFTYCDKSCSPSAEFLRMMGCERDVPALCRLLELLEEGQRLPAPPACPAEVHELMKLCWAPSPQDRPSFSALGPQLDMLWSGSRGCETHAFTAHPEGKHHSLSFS
Put plainly: Inhibition of recombinant human JAK3 (781 to end residues) using GGEEEEYFELVKKKK as substrate measured after 40 mins in presence of [gamma33P]ATP by scintillation counting based radiometry assay.

Series [5] concerns the target Tyrosine-protein kinase JAK2 (Homo sapiens, UniProt O60674). Put plainly: Inhibition of recombinant human JAK2 (808 to end residues) KTFCGTPEYLAPE as substrate measured after 40 mins in presence of [gamm33P]ATP by scintillation counting based radiometry assay.
The species entered for another series is Homo sapiens. Put plainly: Selectivity index, ratio of IC50 for inhibition of recombinant human JAK2 (808 to end residues) to IC50 for inhibition of recombinant human TYK2 (875 to end residues).

Chain of Non-receptor tyrosine-protein kinase TYK2 (P29597 whole entry): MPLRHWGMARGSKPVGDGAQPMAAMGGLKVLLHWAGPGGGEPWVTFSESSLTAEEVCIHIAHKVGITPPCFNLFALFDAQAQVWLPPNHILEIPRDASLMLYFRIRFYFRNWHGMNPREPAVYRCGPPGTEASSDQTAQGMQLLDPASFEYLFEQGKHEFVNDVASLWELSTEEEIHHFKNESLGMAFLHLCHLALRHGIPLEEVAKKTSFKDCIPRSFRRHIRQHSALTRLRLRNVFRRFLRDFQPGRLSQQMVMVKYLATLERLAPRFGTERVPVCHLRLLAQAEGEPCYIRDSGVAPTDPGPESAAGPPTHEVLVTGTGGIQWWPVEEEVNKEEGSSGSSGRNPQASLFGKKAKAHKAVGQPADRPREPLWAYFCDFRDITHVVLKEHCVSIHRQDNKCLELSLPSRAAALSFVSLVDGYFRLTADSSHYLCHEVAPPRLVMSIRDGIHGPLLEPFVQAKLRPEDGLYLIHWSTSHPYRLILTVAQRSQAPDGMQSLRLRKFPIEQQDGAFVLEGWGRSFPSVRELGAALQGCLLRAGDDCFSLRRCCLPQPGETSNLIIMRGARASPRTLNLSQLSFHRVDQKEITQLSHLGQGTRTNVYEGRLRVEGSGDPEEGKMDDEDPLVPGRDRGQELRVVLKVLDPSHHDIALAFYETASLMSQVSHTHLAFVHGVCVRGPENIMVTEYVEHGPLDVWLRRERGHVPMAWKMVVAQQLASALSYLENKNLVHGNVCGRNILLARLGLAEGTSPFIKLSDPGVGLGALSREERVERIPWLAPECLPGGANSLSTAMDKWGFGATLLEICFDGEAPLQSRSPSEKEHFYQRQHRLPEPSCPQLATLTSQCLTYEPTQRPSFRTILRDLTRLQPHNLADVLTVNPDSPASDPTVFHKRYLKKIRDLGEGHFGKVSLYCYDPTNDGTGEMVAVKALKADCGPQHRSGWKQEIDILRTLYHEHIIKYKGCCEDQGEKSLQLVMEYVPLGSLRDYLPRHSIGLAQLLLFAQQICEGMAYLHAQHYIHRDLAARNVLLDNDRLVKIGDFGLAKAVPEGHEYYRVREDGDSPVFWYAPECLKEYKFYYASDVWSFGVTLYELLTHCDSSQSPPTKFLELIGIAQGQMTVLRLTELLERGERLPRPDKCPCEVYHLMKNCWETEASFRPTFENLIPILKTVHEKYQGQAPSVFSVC
Chain of Tyrosine-protein kinase JAK1 (P23458 whole entry): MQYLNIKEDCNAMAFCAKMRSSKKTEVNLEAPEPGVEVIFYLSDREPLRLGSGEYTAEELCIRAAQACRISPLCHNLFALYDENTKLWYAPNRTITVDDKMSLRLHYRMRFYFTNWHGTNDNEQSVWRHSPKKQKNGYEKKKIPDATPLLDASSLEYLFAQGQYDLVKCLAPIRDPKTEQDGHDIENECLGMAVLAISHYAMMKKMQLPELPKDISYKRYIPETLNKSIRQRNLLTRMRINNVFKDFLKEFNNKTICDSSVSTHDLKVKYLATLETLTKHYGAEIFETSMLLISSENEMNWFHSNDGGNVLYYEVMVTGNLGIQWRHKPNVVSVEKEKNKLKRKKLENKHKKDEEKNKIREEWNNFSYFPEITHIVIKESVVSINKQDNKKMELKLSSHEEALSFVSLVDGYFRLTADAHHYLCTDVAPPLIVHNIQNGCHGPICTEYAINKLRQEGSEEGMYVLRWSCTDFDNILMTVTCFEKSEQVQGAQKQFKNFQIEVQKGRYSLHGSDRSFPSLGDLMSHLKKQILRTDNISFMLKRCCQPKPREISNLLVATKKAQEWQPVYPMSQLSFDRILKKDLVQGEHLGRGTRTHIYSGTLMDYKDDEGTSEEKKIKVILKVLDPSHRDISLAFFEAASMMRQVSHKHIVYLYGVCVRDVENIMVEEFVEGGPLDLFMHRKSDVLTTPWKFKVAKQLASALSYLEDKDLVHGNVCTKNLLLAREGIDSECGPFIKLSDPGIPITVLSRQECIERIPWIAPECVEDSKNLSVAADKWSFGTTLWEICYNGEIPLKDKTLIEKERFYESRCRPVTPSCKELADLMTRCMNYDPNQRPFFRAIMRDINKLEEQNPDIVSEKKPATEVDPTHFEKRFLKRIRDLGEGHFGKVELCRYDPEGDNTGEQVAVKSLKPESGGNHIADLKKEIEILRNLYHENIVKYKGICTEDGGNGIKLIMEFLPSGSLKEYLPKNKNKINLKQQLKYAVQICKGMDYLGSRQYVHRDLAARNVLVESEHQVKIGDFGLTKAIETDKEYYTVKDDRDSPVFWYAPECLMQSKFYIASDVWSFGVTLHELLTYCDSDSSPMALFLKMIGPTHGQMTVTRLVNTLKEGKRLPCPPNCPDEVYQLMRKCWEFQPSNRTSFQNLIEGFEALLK
Chain of Tyrosine-protein kinase JAK2 (O60674 whole entry): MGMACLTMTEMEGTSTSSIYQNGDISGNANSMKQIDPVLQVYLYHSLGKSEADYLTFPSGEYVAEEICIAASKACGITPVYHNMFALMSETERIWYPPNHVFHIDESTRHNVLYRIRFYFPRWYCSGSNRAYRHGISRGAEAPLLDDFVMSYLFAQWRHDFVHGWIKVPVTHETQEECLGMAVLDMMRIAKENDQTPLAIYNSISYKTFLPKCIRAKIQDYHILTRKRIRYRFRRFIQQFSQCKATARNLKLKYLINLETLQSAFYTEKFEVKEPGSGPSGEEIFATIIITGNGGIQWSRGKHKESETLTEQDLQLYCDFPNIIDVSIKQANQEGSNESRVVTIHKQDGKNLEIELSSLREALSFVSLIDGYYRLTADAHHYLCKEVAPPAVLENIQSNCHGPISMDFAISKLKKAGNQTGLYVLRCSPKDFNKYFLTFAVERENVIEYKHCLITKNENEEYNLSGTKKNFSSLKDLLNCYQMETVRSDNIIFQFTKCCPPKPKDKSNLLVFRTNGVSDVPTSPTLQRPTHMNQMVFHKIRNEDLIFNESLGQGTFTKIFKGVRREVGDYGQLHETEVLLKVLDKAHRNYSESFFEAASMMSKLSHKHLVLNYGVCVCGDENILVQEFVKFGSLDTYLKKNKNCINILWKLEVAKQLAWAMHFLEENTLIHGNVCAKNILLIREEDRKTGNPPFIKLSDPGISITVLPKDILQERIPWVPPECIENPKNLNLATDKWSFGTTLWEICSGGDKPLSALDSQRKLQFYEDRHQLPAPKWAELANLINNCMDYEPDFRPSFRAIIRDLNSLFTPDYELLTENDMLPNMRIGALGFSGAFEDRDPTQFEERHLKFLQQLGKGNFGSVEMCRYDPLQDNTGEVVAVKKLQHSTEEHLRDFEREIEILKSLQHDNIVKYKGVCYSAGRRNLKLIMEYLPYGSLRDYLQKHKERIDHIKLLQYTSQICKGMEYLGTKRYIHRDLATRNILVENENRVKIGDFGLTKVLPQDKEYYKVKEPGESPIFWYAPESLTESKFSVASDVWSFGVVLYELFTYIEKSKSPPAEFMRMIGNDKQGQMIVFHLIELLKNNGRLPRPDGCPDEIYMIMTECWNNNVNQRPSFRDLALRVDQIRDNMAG

With `CCOC(C)n1cc(-c2nc(Nc3ccc4c(c3)CCN4S(=O)(=O)c3ccc(C(F)(F)F)cc3)ncc2C)cn1` (stereo not given), the IC50 in series [1] came to 383 nM; in series [3], 38 nM; in series [4], 510 nM; in series [5], 341 nM. Besides, the half-life in series [2] is 15.3 min.
The corresponding values for `Cc1cnc(Nc2ccc3c(c2)CCN3S(=O)(=O)c2ccc(C(F)(F)F)cc2)nc1-c1cnn(CCC#N)c1` are 84 nM, 2 nM, greater than 1000 nM, 21 nM and 22 min.
In the case of `N#CCCn1cc(-c2nc(Nc3ccc4c(ccn4S(=O)(=O)c4ccc(C(F)(F)F)cc4)c3)ncc2F)cn1`, the half-life in series [2] was 38.1 min.
Turning to `Cc1cnc(Nc2ccc3c(c2)CCN3S(=O)(=O)c2ccc3c(c2)CC(=O)N3)nc1-c1cnn(C(C)C)c1`, the Selectivity Index in the series filed under Homo sapiens worked out at 2.03. Besides, the figures for the IC50 in series [3] and in series [5] were 12.3 nM and 25 nM, respectively.
As to `N#CCCn1cc(-c2nc(Nc3ccc4c(c3)CCN4S(=O)(=O)C(F)(F)F)ncc2F)cn1`, the IC50 was 912 nM in series [1], 4 nM in series [3], greater than 1000 nM in series [4] and 196 nM in series [5]. For the same compound, in series [2], the half-life was 9.8 min.
For the compound `COc1ccc(S(=O)(=O)N2CCc3cc(Nc4ncc(C)c(-c5cnn(C(C)C)c5)n4)ccc32)cc1`, in the series listed under Homo sapiens, the Selectivity Index was determined as 3.08. Moreover, the IC50 in series [3] was 7.82 nM; in series [5] it was 24.1 nM.
`CC(C)(C)c1ccc(C(=O)N2CCc3cc(Nc4ncc(F)c(-c5cnn(CCC#N)c5)n4)ccc32)cc1`: the IC50 in series [3] was 40 nM; in series [5], 601 nM.
As for `Cc1cnc(Nc2ccc3c(c2)CCN3S(=O)(=O)c2ccc(C(F)(F)F)cc2)nc1-c1cnn(C2CC2)c1`, the half-life in series [2] came out at 4.13 min. Also, the IC50 in series [3] was 60 nM.
`Cc1cnc(Nc2ccc3c(c2)CCN3C(=O)Cc2ccc(OC(F)(F)F)cc2)nc1-c1cnn(C(C)C)c1`: the Selectivity Index in the series filed under Homo sapiens is 7.8. Moreover, the figures for the IC50 in series [3] and in series [5] were 51.1 nM and 398 nM, respectively.
Consider `Cc1cnc(Nc2ccc3c(c2)CCN3C(=O)CCN2CCOCC2)nc1-c1cnn(C(C)C)c1`, for which the Selectivity Index in the series listed under Homo sapiens stood at 1.24. For the same compound, the IC50 turned out to be 9.64 nM in series [3] and 12 nM in series [5].
For `N#CCCn1cc(-c2nc(Nc3ccc4c(c3)CCN4)ncc2F)cn1`, in series [2], the half-life was determined as 3.2 min. The results for the IC50 in series [3] and in series [5] were 2 nM and 292 nM, respectively.
With `Cc1cnc(Nc2ccc3c(c2)CCN3C(=O)[C@H]2CCCN2C(=O)C2(C#N)CC2)nc1-c1cnn(C(C)C)c1`, the Selectivity Index in the series listed under Homo sapiens was 1.85. The IC50 in series [3] turned out to be 2.05 nM; in series [5] it was 3.8 nM.
`N#CCCn1cc(-c2nc(Nc3ccc4c(c3)CNC4=O)ncc2F)cn1`: the half-life in series [2] was found to be 56.8 min. Besides, the IC50 in series [3] turned out to be 7 nM; in series [5] it was 58 nM.
Regarding `Cc1cnc(Nc2ccc3c(c2)CCN3C(=O)CN2CCS(=O)(=O)CC2)nc1-c1cnn(C(C)C)c1`, in the series listed under Homo sapiens, the Selectivity Index was 1.51. Moreover, the figures for the IC50 in series [3] and in series [5] were 1.99 nM and 3 nM, respectively.
For the compound `Cc1cnc(Nc2ccc(N3CCC(N(C)CCO)CC3)c(F)c2)nc1-c1cnn(C(C)C)c1`, the IC50 in series [3] was found to be 2 nM.
`N#CCCn1cc(-c2nc(Nc3ccc4c(c3)CCN4C(=O)CN3CCS(=O)(=O)CC3)ncc2F)cn1`: the IC50 in series [1] is 125 nM; in series [3], 2 nM; in series [4], 244 nM. Also, the half-life in series [2] was greater than 120 min.
Consider `CCCn1cc(-c2nc(Nc3ccc4c(c3)CCN4S(=O)(=O)c3ccc(C(F)(F)F)cc3)ncc2C)cn1`, for which the half-life in series [2] turned out to be 2.38 min. In series [3], the IC50 was 23 nM.
For the compound `Cc1cnc(Nc2ccc3c(c2)CCN3S(=O)(=O)c2ccc3c(c2)CC(=O)N3C)nc1-c1cnn(C(C)C)c1`, the Selectivity Index in the series listed under Homo sapiens is less than 1. Also, the half-maximal inhibitory concentration (IC50) came out at 63 nM in series [3] and 12.6 nM in series [5].
Turning to `Cc1cnc(Nc2ccc3c(c2)CNC3=O)nc1-c1cnn(CCC#N)c1`, in series [2], the half-life is 7.79 min. For the same compound, the IC50 in series [3] is 0.67 nM; in series [5], 1.1 nM.
For `Cc1cnc(Nc2ccc3c(c2)CCN3C(=O)c2ccc(C(F)(F)F)cc2F)nc1-c1cnn(C(C)C)c1`, the Selectivity Index in the series listed under Homo sapiens worked out at 2.36. Further, the IC50 turned out to be 10.6 nM in series [3] and 25.1 nM in series [5].
Turning to `N#CCCn1cc(-c2nc(Nc3ccc4c(ccn4C(=O)C4CC4)c3)ncc2F)cn1`, the half-life in series [2] is 69.3 min. Moreover, the IC50 in series [3] stood at 151 nM; in series [5], 299 nM.
The corresponding values for `N#CCCn1cc(-c2nc(Nc3ccc4c(c3)CCN4C(=O)c3ccc(C(F)(F)F)cc3)ncc2F)cn1` are 17.2 min, 5 nM and 153 nM.
On to `Cc1cnc(Nc2ccc3c(c2)CCN3C(=O)C2CC2(F)F)nc1-c1cnn(C(C)C)c1` (stereo not given), for which the Selectivity Index in the series filed under Homo sapiens amounted to 1.16. The IC50 came to 5.72 nM in series [3] and 6.65 nM in series [5].
As to `N#CCCn1cc(-c2nc(Nc3ccc4c(c3)CCN4C(=O)C3(C#N)CC3)ncc2F)cn1`, the IC50 in series [1] was 259 nM; in series [3], 6 nM; in series [4], 191 nM; in series [5], 28 nM. The half-life in series [2] worked out at 31.8 min.
For the compound `Cc1cnc(Nc2ccc3c(c2)CCN3C(=O)[C@@H](O)CO)nc1-c1cnn(C(C)C)c1`, in the series filed under Homo sapiens, the Selectivity Index turned out to be 1.95. The IC50 in series [3] worked out at 10.8 nM; in series [5], 21.2 nM.
Regarding `N#CCCn1cc(-c2nc(Nc3ccc4c(c3)CCN4S(=O)(=O)c3ccc(C(F)(F)F)cc3)ncc2F)cn1`, the half-life in series [2] is 9.2 min. For the same compound, in series [3], the IC50 amounted to 9 nM.
`Cc1cnc(Nc2ccc3c(c2)CCN3C(=O)[C@@H]2C[C@@H]2F)nc1-c1cnn(C(C)C)c1`: the Selectivity Index in the series filed under Homo sapiens was found to be 1.65. Moreover, the IC50 worked out at 6.28 nM in series [3] and 10.4 nM in series [5].
The corresponding values for `Cc1cnc(Nc2ccc3c(c2)CCN3C(=O)C2CC2)nc1-c1cnn(C(C)C)c1` are 1.03, 3.76 nM and 3.86 nM.
The corresponding values for `CC(=O)N1CCc2cc(Nc3ncc(C)c(-c4cnn(C(C)C)c4)n3)ccc21` are 3.31, 1.81 nM and 6 nM.
On the same counts, the results for `CCS(=O)(=O)N1CCc2cc(Nc3ncc(C)c(-c4cnn(C(C)C)c4)n3)ccc21` are 1.69, 1.61 nM and 2.72 nM.
On to `Cn1ccc2cc(Nc3ncc(F)c(-c4cnn(CCC#N)c4)n3)ccc21`, for which the half-life in series [2] worked out at 7.62 min. The IC50 is 18 nM in series [3] and 114 nM in series [5].
Take `Cc1cnc(Nc2ccc3c(c2)CCN3S(=O)(=O)C2CC2)nc1-c1cnn(C(C)C)c1`: the Selectivity Index in the series listed under Homo sapiens is less than 1. In addition, the IC50 in series [3] amounted to 2.69 nM; in series [5] it was 2.38 nM.
As to `Cc1cnc(Nc2ccc(NS(=O)(=O)c3ccc(C(F)(F)F)cc3)c(F)c2)nc1-c1cnn(C(C)C)c1`, the IC50 amounted to 41 nM in series [1], 13 nM in series [3], 688 nM in series [4] and 25 nM in series [5].
`Cc1cnc(Nc2ccc3c(c2)CCN3C(=O)c2cccc(C(F)(F)F)c2)nc1-c1cnn(C(C)C)c1`: the Selectivity Index in the series listed under Homo sapiens is 4.49. Further, the IC50 in series [3] amounted to 14.6 nM; in series [5], 65.3 nM.
On the same counts, the results for `Cc1cnc(Nc2ccc3c(c2)CCN3C(=O)[C@H]2CCCN2)nc1-c1cnn(C(C)C)c1` are less than 1, 5 nM and 3 nM.
As to `CCCS(=O)(=O)N1CCc2cc(Nc3ncc(C)c(-c4cnn(C(C)C)c4)n3)ccc21`, in the series listed under Homo sapiens, the Selectivity Index is less than 1. For the same compound, the IC50 in series [3] turned out to be 3.84 nM; in series [5], 2.29 nM.

One may read the IC50 as the midpoint of a concentration-inhibition curve. By half-life is commonly meant the time needed for the level to fall by half in the phase considered.

For the origin of these results see ChEMBL document CHEMBL4825658, “Discovery of 3-(4-(2-((1H-Indol-5-yl)amino)-5-fluoropyrimidin-4-yl)-1H-pyrazol-1-yl)propanenitrile Derivatives as Selective TYK2 Inhibitors for the Treatment of Inflammatory Bowel Disease” (J Med Chem, 2021).
